# Tests used:
# Type in all cases: in vivo
# Agrostis tenuis (AGSTE) = assay: Herbicidal early post-emergence action (Table A1); conditions: 1900 g/ha; scored visually 9 to 12 days after treatment; 100% = plants have died, 0% = like control plants
# Method: (§1) Seeds of monocotyledonous and dicotyledonous weed plants were placed in 96-well microtiter plates in quartz sand and grown in a climatized chamber under controlled growth conditions. 5 to 7 days after sowing, the test plants were treated at the cotyledon stage. The compounds according to the invention, formulated in the form of emulsion concentrates (EC), were applied with a water application rate of the equivalent of 2200 liters per hectare. After the test plants had been left to stand in the climatized chamber for 9 to 12 days under optimum growth conditions, the effect of the preparations was scored visually in comparison to untreated controls. For example, 100% activity=the plants have died, 0% activity=like control plants. Tables A1 to A8 below show the effects of selected compounds of the general formula (I) according to Table 1 on various harmful plants and an application rate corresponding to 1900 g/ha, which were obtained by the experimental procedure mentioned above.
# Poa annua (POAAN) [1] = assay: Herbicidal early post-emergence action (Table A3); conditions: 1900 g/ha; scored visually 9 to 12 days after treatment; 100% = plants have died, 0% = like control plants
# Method: as §1
# [2] = test system: harmful plants AGSTE, DIPTE, LOLPE, MATCH, POAAN, SETVI, STEME and VERPE; assay: Herbicidal early post-emergence action, summary of Tables A1-A8; conditions: application rate of 1900 g of active ingredient per hectare; summary in words
# Method: as §1, with “plants.” for “plants. Tables A1 to A8 below show the effects of selected compounds of the general formula (I) according to Table 1 on various harmful plants and an application rate corresponding to 1900 g/ha, which were obtained by the experimental procedure mentioned above.”
# Tables A1 to A8 below show the effects of selected compounds of the general formula (I) according to Table 1 on various harmful plants and an application rate corresponding to 1900 g/ha, which were obtained by the experimental procedure mentioned above.
# As the results of Tables A1-A8 show, compounds no.
# [3] = test system: Echinochloa crus-galli (ECHCG); assay: Herbicidal post-emergence action (Table B1); conditions: 1280 g/ha; rated visually after about 3 weeks; 100% = plants have died, 0% = like control plants
# How it was run: (§2)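 Post-emergence spray, one-leaf stage (2–3 wk after sowing), sandy loam, greenhouse. WP/EC in water + 0.5% additive, 600 L/ha, 1280 or 320 g/ha. Visual % activity vs untreated after ~3 wk (0% = like control, 100% = plants dead).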
# Poa annua (POAAN) [4] = assay: Herbicidal post-emergence action (Table B3); conditions: rated visually after about 3 weeks, 100% = plants have died, 0% = like control plants
# How it was run: as §2
# [5] = test system: Abutilon theophrasti (ABUTH); assay: Herbicidal post-emergence action (Table B5); conditions: rated visually after about 3 weeks, 100% = plants have died, 0% = like control plants
# How it was run: as §2
# [6] = test system: Amaranthus retroflexus (AMARE); assay: Herbicidal post-emergence action (Table B6); conditions: dosage 1280 g/ha; visual rating about 3 weeks after treatment; 100% = plants have died, 0% = like control plants
# How it was run: as §2
# [7] = test system: Matricaria inodora (MATIN); assay: Herbicidal post-emergence action (Table B7); conditions: rated visually after about 3 weeks, 100% = plants have died, 0% = like control plants
# Method: Seeds of mono- and dicotyledonous weed plants were placed in plastic pots in sandy loam soil (doubly sown with in each case one species of mono- or dicotyledonous weed plants per pot), covered with soil and cultivated in a greenhouse under controlled growth conditions. 2 to 3 weeks after sowing, the test plants were treated at the one-leaf stage. The compounds of the invention, formulated in the form of wettable powders (WP) or as emulsion concentrates (EC), were applied onto the green parts of the plants as aqueous suspension or emulsion with addition of 0.5% additive at a water application rate of 600 liters per hectare (converted). After the test plants had been kept in the greenhouse under optimum growth conditions for about 3 weeks, the activity of the preparations was rated visually in comparison to untreated controls. For example, 100% activity=the plants have died, 0% activity=like control plants. Tables B1 to B12 below show the effects of selected compounds of the general formula (I) according to Table 1 on various harmful plants and an application rate corresponding to 1280 or 320 g/ha, which were obtained by the experimental procedure mentioned above.
# Stellaria media (STEME) [8] = assay: Herbicidal post-emergence action (Table B8); conditions: visual rating about 3 weeks after treatment, 100% = plants have died, 0% = like control plants
# How it was run: as §2
# [9] = test system: Alopecurus myosuroides (ALOMY); assay: Herbicidal post-emergence action (Table B9); conditions: rated visually after about 3 weeks, 100% = plants have died, 0% = like control plants
# How it was run: as §2
# Bassia scoparia (KCHSC) [10] = assay: Herbicidal post-emergence action (Table B11); conditions: dosage 1280 g/ha; visual rating about 3 weeks after treatment; 100% = plants have died, 0% = like control plants
# How it was run: as §2
# Veronica persica (VERPE) [11] = assay: Herbicidal post-emergence action (Table B12); conditions: visual rating about 3 weeks after treatment, 100% = plants have died, 0% = like control plants
# How it was run: as §2
# [12] = test system: Echinochloa crus-galli (ECHCG); assay: Herbicidal pre-emergence action, test C (Table C1); conditions: dosage 1280 g/ha; visual scoring after about 3 weeks; 100% = plants have died, 0% = like control plants
# How it was run: (§3)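 Greenhouse pre-emergence test: compound formulations (WP or EC) are applied at 1280 or 320 g/ha to the soil surface over sown weed seeds, with 0.5% additive in 600 L/ha water. After about 3 weeks, percent activity is assessed visually, 100% indicating dead plants.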
# Poa annua (POAAN) [13] = assay: Herbicidal pre-emergence action, test C (Table C3); conditions: visual scoring after about 3 weeks, 100% = plants have died, 0% = like control plants
# How it was run: as §3
# Setaria viridis (SETVI) = assay: Herbicidal pre-emergence action, test C (Table C4); conditions: dosage 1280 g/ha; visual scoring after about 3 weeks; 100% = plants have died, 0% = like control plants
# How it was run: as §3
# [14] = test system: Abutilon theophrasti (ABUTH); assay: Herbicidal pre-emergence action, test C (Table C5); conditions: visual scoring after about 3 weeks, 100% = plants have died, 0% = like control plants
# How it was run: as §3
# [15] = test system: Amaranthus retroflexus (AMARE); assay: Herbicidal pre-emergence action, test C (Table C6); conditions: visual scoring after about 3 weeks, 100% = plants have died, 0% = like control plants
# How it was run: as §3
# [16] = test system: Matricaria inodora (MATIN); assay: Herbicidal pre-emergence action, test C (Table C7); conditions: visual scoring after about 3 weeks, 100% = plants have died, 0% = like control plants
# How it was run: as §3
# Stellaria media (STEME) [17] = assay: Herbicidal pre-emergence action, test C (Table C8); conditions: visual scoring after about 3 weeks, 100% = plants have died, 0% = like control plants
# How it was run: as §3
# [18] = test system: Alopecurus myosuroides (ALOMY); assay: Herbicidal pre-emergence action, test C (Table C9); conditions: visual scoring after about 3 weeks, 100% = plants have died, 0% = like control plants
# How it was run: as §3
# [19] = test system: Digitaria sanguinalis (DIGSA); assay: Herbicidal pre-emergence action, test C (Table C10); conditions: dosage 1280 g/ha; visual scoring after about 3 weeks; 100% = plants have died, 0% = like control plants
# How it was run: as §3
# Bassia scoparia (KCHSC) [20] = assay: Herbicidal pre-emergence action, test C (Table C11); conditions: dosage 1280 g/ha, visual scoring vs untreated controls
# How it was run: as §3
# Veronica persica (VERPE) [21] = assay: Herbicidal pre-emergence action, test C (Table C12); conditions: visual scoring vs untreated controls
# How it was run: as §3
# [22] = test system: harmful plants ABUTH, AMARE, ECHCG, LOLRI, MATIN, POAAN, SETVI, STEME, ALOMY, DIGSA, KCHSC and VERPE; assay: Herbicidal post-emergence action, summary of Tables B1-B12; conditions: application rate of 1280 or 320 g of active ingredient per hectare; summary in words
# How it was run: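 Activity scored by eye roughly 3 weeks post-treatment against untreated plants, from 0% (no effect) to 100% (plants dead). Application rates were 1280 or 320 g/ha, as aqueous WP/EC spray plus 0.5% additive at 600 L/ha, onto one-leaf-stage weeds grown 2–3 weeks in sandy loam.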
# [23] = test system: harmful plants ABUTH, AMARE, ECHCG, LOLRI, MATIN, POAAN, SETVI, STEME, ALOMY, DIGSA, KCHSC and VERPE; assay: Herbicidal pre-emergence action (test C), summary of Tables C1-C12; conditions: application rate of 1280 or 320 g of active ingredient per hectare; summary in words
# How it was run: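 Visual % damage versus untreated plants (0% = like control, 100% = died) was scored after about 3 weeks in the greenhouse. Before emergence, seeds sown in sandy loam got a soil-surface spray of compound as WP or EC plus 0.5% additive, using 600 L/ha water at rates of 1280 or 320 g/ha.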
smiles,measurement,setting,value
Cc1cc(F)c(-c2cc(C(F)F)on2)c(Oc2ncc(Cl)cc2F)c1 [Example 1-87],Early post-emergence effect against Agrostis tenuis (AGSTE),Agrostis tenuis (AGSTE),80%
same,Early post-emergence effect against Poa annua (POAAN),Poa annua (POAAN) [1],80%
same,herbicidal activity against the harmful plants of Tables A1-A8 in early post-emergence treatment,[2],very good herbicidal activity
Cc1cc(C)c(-c2cc(C(F)F)no2)c(Oc2ccccn2)c1 [Example 1-86],Post-emergence action against Echinochloa crus-galli (ECHCG),[3],100%
same,Post-emergence action against Poa annua (POAAN),Poa annua (POAAN) [4]; 320 g/ha,100%
same,Post-emergence action against Poa annua (POAAN),Poa annua (POAAN) [4]; 1280 g/ha,100%
same,Post-emergence action against Abutilon theophrasti (ABUTH),[5]; 320 g/ha,100%
same,Post-emergence action against Abutilon theophrasti (ABUTH),[5]; 1280 g/ha,100%
same,Post-emergence action against Amaranthus retroflexus (AMARE),[6],100%
same,Post-emergence action against Matricaria inodora (MATIN),[7]; 320 g/ha,100%
same,Post-emergence action against Matricaria inodora (MATIN),[7]; 1280 g/ha,100%
same,Post-emergence action against Stellaria media (STEME),Stellaria media (STEME) [8]; dosage 320 g/ha,100%
same,Post-emergence action against Stellaria media (STEME),Stellaria media (STEME) [8]; dosage 1280 g/ha,100%
same,Post-emergence action against Alopecurus myosuroides (ALOMY),[9]; 320 g/ha,100%
same,Post-emergence action against Alopecurus myosuroides (ALOMY),[9]; 1280 g/ha,100%
same,Post-emergence action against Bassia scoparia (KCHSC),Bassia scoparia (KCHSC) [10],90%
same,Post-emergence action against Veronica persica (VERPE),Veronica persica (VERPE) [11]; dosage 320 g/ha,100%
same,Post-emergence action against Veronica persica (VERPE),Veronica persica (VERPE) [11]; dosage 1280 g/ha,100%
same,Pre-emergence action against Echinochloa crus-galli (ECHCG),[12],100%
same,Pre-emergence action against Poa annua (POAAN),Poa annua (POAAN) [13]; dosage 320 g/ha,90%
same,Pre-emergence action against Poa annua (POAAN),Poa annua (POAAN) [13]; dosage 1280 g/ha,100%
same,Pre-emergence action against Setaria viridis (SETVI),Setaria viridis (SETVI),100%
same,Pre-emergence action against Abutilon theophrasti (ABUTH),[14]; dosage 320 g/ha,90%
same,Pre-emergence action against Abutilon theophrasti (ABUTH),[14]; dosage 1280 g/ha,100%
same,Pre-emergence action against Amaranthus retroflexus (AMARE),[15]; dosage 320 g/ha,100%
same,Pre-emergence action against Amaranthus retroflexus (AMARE),[15]; dosage 1280 g/ha,100%
same,Pre-emergence action against Matricaria inodora (MATIN),[16]; dosage 320 g/ha,90%
same,Pre-emergence action against Matricaria inodora (MATIN),[16]; dosage 1280 g/ha,100%
same,Pre-emergence action against Stellaria media (STEME),Stellaria media (STEME) [17]; dosage 320 g/ha,90%
same,Pre-emergence action against Stellaria media (STEME),Stellaria media (STEME) [17]; dosage 1280 g/ha,100%
same,Pre-emergence action against Alopecurus myosuroides (ALOMY),[18]; dosage 320 g/ha,90%
same,Pre-emergence action against Alopecurus myosuroides (ALOMY),[18]; dosage 1280 g/ha,90%
same,Pre-emergence action against Digitaria sanguinalis (DIGSA),[19],100%
same,Pre-emergence action against Bassia scoparia (KCHSC),Bassia scoparia (KCHSC) [20],100%
same,Pre-emergence action against Veronica persica (VERPE),Veronica persica (VERPE) [21]; dosage 320 g/ha,90%
same,Pre-emergence action against Veronica persica (VERPE),Veronica persica (VERPE) [21]; dosage 1280 g/ha,100%
same,herbicidal activity against the harmful plants of Tables B1-B12 in post-emergence treatment,[22],very good herbicidal activity
same,herbicidal activity against the harmful plants of Tables C1-C12 in pre-emergence treatment,[23],very good herbicidal activity
Cc1ccc(-c2ccccc2Oc2ncc(Cl)cc2F)nc1 [Example 1-106],Early post-emergence effect against Poa annua (POAAN),Poa annua (POAAN) [1],80%
same,herbicidal activity against the harmful plants of Tables A1-A8 in early post-emergence treatment,[2],very good herbicidal activity

# From US12052991B2, “Substituted pyridinyloxybenzenes and salts thereof and use thereof as herbicidal agents” (Bayer Aktiengesellschaft, priority 2018, dated 2024)
